Where two headings read alike, the source gives them in different places.
Legend:
[1] = biological target: T1, human A1 adenosine receptor (Homo sapiens, UniProt P30542); assay: [3H]DPCPX binding to human A1 receptors expressed in CHO cells
T1 construct: expressed in transfected cells; host or cells: CHO cells (membranes)
T1 sequence (P30542 1-326): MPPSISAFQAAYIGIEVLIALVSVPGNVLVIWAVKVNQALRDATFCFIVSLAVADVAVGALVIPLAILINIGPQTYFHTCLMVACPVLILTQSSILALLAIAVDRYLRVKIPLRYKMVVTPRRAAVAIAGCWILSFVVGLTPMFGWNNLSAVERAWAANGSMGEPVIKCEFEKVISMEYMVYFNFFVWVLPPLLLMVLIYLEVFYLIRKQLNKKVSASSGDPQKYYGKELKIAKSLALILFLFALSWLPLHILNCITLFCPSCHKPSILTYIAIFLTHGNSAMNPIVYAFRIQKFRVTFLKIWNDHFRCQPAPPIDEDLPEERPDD
Description: (§1) The cells were grown adherently and maintained in Dulbecco's modified Eagle's medium with nutrient mixture F12 without nucleosides at 37° C. in 5% CO2/95% air. The cells were washed with phosphate-buffered saline and scraped off flasks in ice cold hypotonic buffer ([…] Tris HCl, 2 mM EDTA, pH 7.4). The cell suspension was homogenized with a Polytron and the homogenate was centrifuged for 30 minutes at 48,000 g. The resultant membrane pellet was re-suspended in 50 mM Tris HCl buffer at pH 7.4 for A1 adenosine receptors; in 50 mM Tris HCl 10 mM MgCl, at pH 7.4 for A2A adenosine receptors; in 50 mM Tris HCl, 10 mM MgCl2, 1 mM EDTA, at pH 7.4 for A3 adenosine receptors and were utilized for binding assays.
Displacement experiments were performed for 120 minutes at 25° C. in 200 μl of buffer containing 1 nM ^3H]-DPCPX 20 μl of diluted membranes (50 μg of protein/assay) and at least 6 to 8 different concentrations of examined compounds.
(§2) The filter bound radioactivity was counted on Top Count (efficiency 57%) with Micro-Scint 20.
(§3) The filter bound radioactivity was counted on a Top Count brand Microplate Scintillation Counter (efficiency 57%) with Micro-Scint 20. […] Inhibitory binding constant. […] Results and Discussion

[2] = biological target: T2, human A2A adenosine receptor (Homo sapiens, UniProt P29274); assay: [3H]ZM241385 binding to human A2A receptors expressed in CHO cells; conditions: read-out: Ki, [3H]ZM241385 binding to human A2A receptors expressed in CHO cells
T2 construct: expressed in transfected cells; host or cells: CHO cells (membranes)
T2 sequence (P29274 whole entry): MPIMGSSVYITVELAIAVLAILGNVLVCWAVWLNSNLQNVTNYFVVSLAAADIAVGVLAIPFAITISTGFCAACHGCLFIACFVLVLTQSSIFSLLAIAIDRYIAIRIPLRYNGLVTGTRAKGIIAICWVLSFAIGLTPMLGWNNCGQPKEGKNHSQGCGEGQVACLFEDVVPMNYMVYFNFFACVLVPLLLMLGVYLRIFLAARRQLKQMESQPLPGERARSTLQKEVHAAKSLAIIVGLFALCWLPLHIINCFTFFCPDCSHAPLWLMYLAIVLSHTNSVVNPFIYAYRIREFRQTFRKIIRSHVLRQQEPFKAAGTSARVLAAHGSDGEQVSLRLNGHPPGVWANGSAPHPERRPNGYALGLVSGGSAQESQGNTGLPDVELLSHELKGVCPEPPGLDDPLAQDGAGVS
Description: as §1, §2, §3

[3] = biological target: T3, human A3 adenosine receptor (Homo sapiens, UniProt P0DMS8); assay: [3H]MRE3008F20 binding to human A3 receptors expressed in CHO cells
T3 construct: expressed in transfected cells; host or cells: CHO cells (membranes)
T3 sequence (P0DMS8 1-318): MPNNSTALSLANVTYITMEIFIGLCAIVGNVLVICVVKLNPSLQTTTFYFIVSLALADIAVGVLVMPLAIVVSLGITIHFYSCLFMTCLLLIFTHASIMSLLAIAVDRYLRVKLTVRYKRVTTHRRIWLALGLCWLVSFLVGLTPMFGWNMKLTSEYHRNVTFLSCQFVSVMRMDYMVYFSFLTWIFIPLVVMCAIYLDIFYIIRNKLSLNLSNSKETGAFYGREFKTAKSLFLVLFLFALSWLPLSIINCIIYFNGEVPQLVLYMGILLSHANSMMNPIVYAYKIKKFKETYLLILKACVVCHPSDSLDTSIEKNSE
Description: as §1
Binding of [^3H]-MRE3008-F20 to CHO cells transfected with the human recombinant A3 adenosine receptors was performed according to Varani et al., 2000. Competition experiments were carried out in duplicate in a final volume of 250 μl in test tubes containing 1 nM [^3H]-MRE3008-F20, 50 mM Tris HCl buffer, […] MgCl2, pH 7.4 and 100 μl of diluted membranes (50 μg of protein/assay) and at least 6–8 different concentrations of examined ligands for 120 minutes at 4° C.
as §2, §3

[4] = biological target: T4, human A2B adenosine receptor (Homo sapiens, UniProt P29275); assay: [3H]DPCPX binding to human A2B receptors expressed in HEK293 cells; set-up: host or cells: HEK 293 cells (membranes); conditions: geometric mean (95% confidence interval); >1000 = no appreciable binding; read-out: Ki, [3H]DPCPX binding to human A2B receptors expressed in HEK293 cells
T4 sequence (P29275 1-332): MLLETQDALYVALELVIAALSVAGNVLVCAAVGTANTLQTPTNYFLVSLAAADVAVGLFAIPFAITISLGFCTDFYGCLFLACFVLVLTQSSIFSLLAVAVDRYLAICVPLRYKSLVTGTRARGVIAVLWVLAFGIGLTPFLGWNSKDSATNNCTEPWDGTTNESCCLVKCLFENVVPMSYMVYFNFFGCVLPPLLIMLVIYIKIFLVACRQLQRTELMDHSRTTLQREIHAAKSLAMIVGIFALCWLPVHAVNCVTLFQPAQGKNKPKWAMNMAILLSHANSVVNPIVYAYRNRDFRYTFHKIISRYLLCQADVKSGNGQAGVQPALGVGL
Description: HEK 293 cells transfected with the human recombinant A2B adenosine receptor were obtained from Receptor Biology, Inc. (Beltsville, Md. USA).
Binding of 1 [^3H]-DPCPX to HEK 293 cells transfected with the human recombinant A2B adenosine receptors was performed according to the method described by Varani et al., 2000. In particular, assays were carried out for 60 minutes at 25° C. in 100 μl of […] Tris HCl buffer, […] MgCl2, 1 mM EDTA, 0.1 mM benzamidine pH 7.4, 2 IU/ml adenosine deaminase containing 40 nM [^3H]-DPCPX, diluted membranes (20 μg of protein/assay) and at least 6–8 different concentration of tested compounds.
as §2, §3

[5] = geometric mean (95% confidence interval), >1000 = no appreciable binding

| Compound | Ki [1, 5] | Ki [2] | Ki [3] | Ki [4] | Ki [1] | Ki [2, 5] | Ki [3, 5] |
| --- | --- | --- | --- | --- | --- | --- | --- |
| CCCn1c(=O)c2[nH]c(-c3cc(NC(=O)Cc4ccc(F)cc4)nn3C)nc2n(CCC)c1=O [AS22, N-[5-(2,6-dioxo-1,3-dipropyl-2,3,6,9-tetrahydro-1H-purin-8-yl)-1-methyl-1H-pyrazol-3-yl]-2-(4-fluorophenyl)acetamide] | 200 nM | > 1000 nM | > 1000 nM | 88 nM | – | – | – |
| CCCn1c(=O)c2[nH]c(-c3cc(NC(=O)Cc4ccc(OC)cc4)nn3C)nc2n(CCC)c1=O [AS23, 2-(4-methoxyphenyl)-N-[5-(2,6-dioxo-1,3-dipropyl-2,3,6,9-tetrahydro-1H-purin-8-yl)-1-methyl-1H-pyrazol-3-yl]acetamide] | 850 nM | > 1000 nM | > 1000 nM | 100 nM | – | – | – |
| CCCn1c(=O)c2[nH]c(-c3cc(NC(=O)Cc4cccc(Cl)c4)nn3C)nc2n(CCC)c1=O [AS24, N-[5-(2,6-dioxo-1,3-dipropyl-2,3,6,9-tetrahydro-1H-purin-8-yl)-1-methyl-1H-pyrazol-3-yl]-2-(3-chlorophenyl)acetamide] | 4480 nM | > 1000 nM | > 1000 nM | 160 nM | – | – | – |
| CCCn1c(=O)c2[nH]c(-c3cc(NC(=O)Cc4cccc(F)c4)nn3C)nc2n(CCC)c1=O [AS25, N-[5-(2,6-dioxo-1,3-dipropyl-2,3,6,9-tetrahydro-1H-purin-8-yl)-1-methyl-1H-pyrazol-3-yl]-2-(3-fluorophenyl)acetamide] | 3230 nM | > 1000 nM | > 1000 nM | 50 nM | – | – | – |
| CCCn1c(=O)c2[nH]c(-c3cc(NC(=O)Cc4ccc(OCc5cccc(C(F)(F)F)c5)cc4)nn3C)nc2n(CCC)c1=O [AS30, N-[5-(2,6-dioxo-1,3-dipropyl-2,3,6,9-tetrahydro-1H-purin-8-yl)-1-methyl-1H-pyrazol-3-yl]-2-(4-{[3-(trifluoromethyl)benzyl]oxy}phenyl)acetamide] | 100 nM | > 1000 nM | > 1000 nM | 90 nM | – | – | – |
| CCCn1c(=O)c2[nH]c(-c3cc(NC(=O)Cc4ccc(OCc5ccc([N+](=O)[O-])cc5)cc4)nn3C)nc2n(CCC)c1=O [AS31, N-[5-(2,6-dioxo-1,3-dipropyl-2,3,6,9-tetrahydro-1H-purin-8-yl)-1-methyl-1H-pyrazol-3-yl]-2-(4-{4-nitro-benzyloxy}phenyl)acetamide] | 163 nM | > 1000 nM | > 1000 nM | 111 nM | – | – | – |
| CCCn1c(=O)c2[nH]c(-c3cc(NC(=O)Cc4ccc(C(F)(F)F)cc4)nn3C)nc2n(CCC)c1=O [AS32, N-[5-(2,6-dioxo-1,3-dipropyl-2,3,6,9-tetrahydro-1H-purin-8-yl)-1-methyl-1H-pyrazol-3-yl]-2-[4-(trifluoromethyl)phenyl]acetamide] | 746 nM | > 1000 nM | > 1000 nM | 190 nM | – | – | – |
| CCCn1c(=O)c2c(nc(/C=C/c3cc(C(=O)OCC)n(C)c3)n2C)n(CCC)c1=O [AS33, ethyl 4-[(E)-2-(7-methyl-1,3-dipropyl-2,6-dioxo-2,3,6,7-tetrahydro-1H-purin-8-yl)vinyl]-1-methyl-1H-pyrrole-2-carboxylate] | – | > 1000 nM | > 1000 nM | > 1000 nM | > 1000 nM | – | – |
| Cn1nc(N)cc1-c1nc2c([nH]1)c(=O)n(C)c(=O)n2C [AS38, 8-(3-amino-1-methyl-1H-pyrazol-5-yl)-1,3-dimethyl-3,7-dihydro-1H-purine-2,6-dione] | – | > 1000 nM | > 1000 nM | 175 nM | > 1000 nM | – | – |
| CCCn1c(=O)c2[nH]c(-c3cc(NC(=O)Cc4ccc(F)c(F)c4)nn3C)nc2n(CCC)c1=O [AS43, N-[5-(2,6-dioxo-1,3-dipropyl-2,3,6,9-tetrahydro-1H-purin-8-yl)-1-methyl-1H-pyrazol-3-yl]-2-(3,4-difluorophenyl)acetamide] | 1900 nM | > 1000 nM | > 1000 nM | 130 nM | – | – | – |
| CCCn1c(=O)c2[nH]c(-c3cc(OCC(=O)Nc4ccc(C)cc4)nn3C)nc2n(CCC)c1=O [AS59, N-(4-methylphenyl)-2-{[5-(1,3-dipropyl-2,6-dioxo-2,3,6,7-tetrahydro-1H-purin-8-yl)-1-methyl-1H-pyrazol-3-yl]oxy}acetamide] | > 1000 nM | – | – | 1010 nM | – | > 1000 nM | > 1000 nM |

Now from value to compound, other results behind:

| Ki [1, 5] | Ki [2] | Ki [3] | Ki [4] | Ki [1] | Compound | Ki [2, 5] | Ki [3, 5] |
| --- | --- | --- | --- | --- | --- | --- | --- |
| 1440 nM | > 1000 nM | > 1000 nM | 81 nM | – | CCCn1c(=O)c2[nH]c(-c3cc(NC(=O)Nc4ccc(OC)cc4)nn3C)nc2n(CCC)c1=O [AS49, 1-[5-(2,6-Dioxo-1,3-dipropyl-2,3,6,7-tetrahydro-1H-purin-8-yl)-1-methyl-1H-pyrazol-3-yl]-3-(4-methoxy-phenyl)-urea] | – | – |
| 2410 nM | > 1000 nM | > 1000 nM | 59 nM | – | CCCn1c(=O)c2[nH]c(-c3cc(NC(=O)Nc4ccc(N(C)C)cc4)nn3C)nc2n(CCC)c1=O [AS53, N-[4-(dimethylamino)phenyl]-N'-[5-(2,6-dioxo-1,3-dipropyl-2,3,6,7-tetrahydro-1H-purin-8-yl)-1-methyl-1H-pyrazol-3-yl]urea] | – | – |
| 1990 nM | > 1000 nM | > 1000 nM | 90 nM | – | CCCn1c(=O)c2[nH]c(-c3cc(NC(=O)Nc4cccc(OC)c4)nn3C)nc2n(CCC)c1=O [AS55, N-[5-(2,6-dioxo-1,3-dipropyl-2,3,6,7-tetrahydro-1H-purin-8-yl)-1-methyl-1H-pyrazol-3-yl]-N'-(3-methoxyphenyl)urea] | – | – |
| – | 2430 nM | > 1000 nM | 100 nM | 1790 nM | CCCn1c(=O)c2[nH]c(-c3cc(NC(=O)Cc4ccc(OCc5ccccc5)c(OC)c4)nn3C)nc2n(CCC)c1=O [AS56, 2-[4-(benzyloxy)-3-methoxyphenyl]-N-[5-(2,6-dioxo-1,3-dipropyl-2,3,6,9-tetrahydro-1H-purin-8-yl)-1-methyl-1H-pyrazol-3-yl]acetamide] | – | – |
| 168 nM | > 1000 nM | > 1000 nM | 93 nM | – | CCCn1c(=O)c2nc(-c3cc(OCC(=O)Nc4ccc(Br)cc4)n(C)n3)[nH]c2n(CCC)c1=O [AS60, N-(4-bromophenyl)-2-{[3-(2,6-dioxo-1,3-dipropyl-2,3,6,9-tetrahydro-1H-purin-8-yl)-1-methyl-1H-pyrazol-5-yl]oxy}acetamide] | – | – |
